Values quoted from earlier work as cited in patent US20100227801A1, “PHARMACEUTICAL COMPOSITIONS” (Scynexis, Inc., priority 2009, published 2010).

Tests used:
HCV subgenomic replicon = settings: subgenomic replicon system
HCV full length replicon = settings: full length replicon system
HCV = settings: phase Ib clinical trial

SMILES	inhibition of HCV-specific RNA replication (HCV subgenomic replicon)	inhibition of HCV-specific RNA replication (HCV full length replicon)	activity against HCV infected patients (HCV)
C/C=C/C[C@@H](C)[C@@H](O)[C@H]1C(=O)N[C@@H](CC)C(=O)N(C)[C@H](SCCN(C)C)C(=O)N(C)[C@@H](CC(C)(C)O)C(=O)N[C@@H](C(C)C)C(=O)N(C)[C@@H](CC(C)C)C(=O)N[C@@H](C)C(=O)N[C@H](C)C(=O)N(C)[C@@H](CC(C)C)C(=O)N(C)[C@@H](CC(C)C)C(=O)N(C)[C@@H](C(C)C)C(=O)N1C [SCY-635, 3-[(R)-2-(N,N-dimethylamino)ethylthio-Sar]-4-(gammahydroxymethylleucine)cyclosporine]	potent and selective inhibition	potent and selective inhibition	–
CC(C)OC(=O)[C@H](C)NP(=O)(OC[C@H]1O[C@@H](n2ccc(=O)[nH]c2=O)[C@](C)(F)[C@@H]1O)Oc1ccccc1 (stereo partly drawn) [PSI-7851]	–	–	demonstrated activity
